# Laboratory results as given in PubChem BioAssay AID1963846 (Molecular Pharmacology Branch, DTP, NCI, 2024).
# System: 454973-116-R2-J3-PDC complex spheroid viability
# Test: Anticancer human tumor 454973-116-R2-J3-PDC patient-derived pancreatic carcinoma cell line growth inhibition [POLQ]
# Settings: for IC50: curve of first compound; for viability, T/C: stronger effect = lower value
# Outline: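 PDC + HUVEC + MSC complex spheroids; POLQ inhibitors ± partner drugs; top conc. at/near clinical Cmax, else 10 microM (SN-38 1 microM), half-log dilutions; 37 degrees C, 5% CO2.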
# [1] = second compound 0.0316 µM, first compound 0.0316 µM
# [2] = second compound 0.0316 µM, first compound 0.1 µM
# [3] = second compound 0.0316 µM, first compound 0.316 µM
# [4] = second compound 0.0316 µM, first compound 1 µM
# [5] = second compound 0.0316 µM, first compound 3.16 µM
# [6] = second compound 0.0316 µM, first compound 10 µM
# [7] = second compound 0.1 µM, first compound 0.0316 µM
# [8] = second compound 0.1 µM, first compound 0.1 µM
# [9] = second compound 0.1 µM, first compound 0.316 µM
# [10] = second compound 0.1 µM, first compound 1 µM
# [11] = second compound 0.1 µM, first compound 3.16 µM
# [12] = second compound 0.1 µM, first compound 10 µM
# [13] = second compound 0.316 µM, first compound 0.0316 µM
# [14] = second compound 0.316 µM, first compound 0.1 µM
# [15] = second compound 0.316 µM, first compound 0.316 µM
# [16] = second compound 0.316 µM, first compound 1 µM
# [17] = second compound 0.316 µM, first compound 3.16 µM
# [18] = second compound 0.316 µM, first compound 10 µM
# [19] = second compound 1 µM, first compound 0.0316 µM
# [20] = second compound 1 µM, first compound 0.1 µM
# [21] = second compound 1 µM, first compound 0.316 µM
# [22] = second compound 1 µM, first compound 1 µM
# [23] = second compound 1 µM, first compound 3.16 µM
# [24] = second compound 1 µM, first compound 10 µM
# [25] = second compound 3.16 µM, first compound 0.0316 µM
# [26] = second compound 3.16 µM, first compound 0.1 µM
# [27] = second compound 3.16 µM, first compound 0.316 µM
# [28] = second compound 3.16 µM, first compound 1 µM
# [29] = second compound 3.16 µM, first compound 3.16 µM
# [30] = second compound 3.16 µM, first compound 10 µM
# [31] = second compound 10 µM, first compound 0.0316 µM
# [32] = second compound 10 µM, first compound 0.1 µM
# [33] = second compound 10 µM, first compound 0.316 µM
# [34] = second compound 10 µM, first compound 1 µM
# [35] = second compound 10 µM, first compound 3.16 µM
# [36] = second compound 10 µM, first compound 10 µM
# 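Further: spheroids exposed to drugs for seven days before measurement.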
# 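Wherever viability, T/C is given: percent viability relative to DMSO vehicle control wells taken as 100%.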
structure (smiles),measurement,setting,value
CC1COCCN1c1cc(-c2ccnn2C)c2ccnc(-c3ccn[nH]3)c2n1 (stereo not drawn) + COC1C(OC(N)=O)C(O)C(Oc2ccc3c(O)c(NC(=O)c4ccc(O)c(CC=C(C)C)c4)c(=O)oc3c2C)OC1(C)C,IC50,second compound 0.0316 µM,0.205 µM
same,IC50,second compound 0.1 µM,0.217 µM
same,IC50,second compound 0.316 µM,0.209 µM
same,IC50,second compound 1 µM,0.22 µM
same,IC50,second compound 3.16 µM,0.223 µM
same,IC50,second compound 10 µM,0.198 µM
same,"viability, T/C",[1],97%
same,"viability, T/C",[2],71.8%
same,"viability, T/C",[3],38.5%
same,"viability, T/C",[4],19.2%
same,"viability, T/C",[5],22.8%
same,"viability, T/C",[6],25.9%
same,"viability, T/C",[7],97.3%
same,"viability, T/C",[8],75.7%
same,"viability, T/C",[9],38%
same,"viability, T/C",[10],21.9%
same,"viability, T/C",[11],20.1%
same,"viability, T/C",[12],23.9%
same,"viability, T/C",[13],97.8%
same,"viability, T/C",[14],77.2%
same,"viability, T/C",[15],35.4%
same,"viability, T/C",[16],21.2%
same,"viability, T/C",[17],23.2%
same,"viability, T/C",[18],29.6%
same,"viability, T/C",[19],103%
same,"viability, T/C",[20],79%
same,"viability, T/C",[21],37.8%
same,"viability, T/C",[22],18.8%
same,"viability, T/C",[23],23.2%
same,"viability, T/C",[24],26.6%
same,"viability, T/C",[25],100%
same,"viability, T/C",[26],77.9%
same,"viability, T/C",[27],39%
same,"viability, T/C",[28],20.4%
same,"viability, T/C",[29],26.1%
same,"viability, T/C",[30],27.9%
same,"viability, T/C",[31],105%
same,"viability, T/C",[32],70.8%
same,"viability, T/C",[33],38%
same,"viability, T/C",[34],16.7%
same,"viability, T/C",[35],25.9%
same,"viability, T/C",[36],33.7%
COc1ccc([C@@H](O)c2cc(-c3ncnc4cc(N5CCOCC5)ccc34)c(F)cc2Cl)nn1 + Nc1ccc(C#CCN(C(=O)Cc2ncc(C(F)(F)F)cc2C(F)(F)F)c2ccc(F)cc2)nn1,IC50,second compound 0.0316 µM,> 10 µM
same,IC50,second compound 0.1 µM,> 10 µM
same,IC50,second compound 0.316 µM,> 10 µM
same,IC50,second compound 1 µM,> 10 µM
same,IC50,second compound 3.16 µM,> 10 µM
same,IC50,second compound 10 µM,> 10 µM
same,"viability, T/C",[1],107%
same,"viability, T/C",[2],107%
same,"viability, T/C",[3],96.9%
same,"viability, T/C",[4],86.9%
same,"viability, T/C",[5],66.3%
same,"viability, T/C",[6],53.5%
same,"viability, T/C",[7],106%
same,"viability, T/C",[8],96.1%
same,"viability, T/C",[9],108%
same,"viability, T/C",[10],90.3%
same,"viability, T/C",[11],69.2%
same,"viability, T/C",[12],49.8%
same,"viability, T/C",[13],107%
same,"viability, T/C",[14],107%
same,"viability, T/C",[15],102%
same,"viability, T/C",[16],85.8%
same,"viability, T/C",[17],73.9%
same,"viability, T/C",[18],52.4%
same,"viability, T/C",[19],107%
same,"viability, T/C",[20],106%
same,"viability, T/C",[21],104%
same,"viability, T/C",[22],92.3%
same,"viability, T/C",[23],79.4%
same,"viability, T/C",[24],59.9%
same,"viability, T/C",[25],102%
same,"viability, T/C",[26],107%
same,"viability, T/C",[27],116%
same,"viability, T/C",[28],93.9%
same,"viability, T/C",[29],68.5%
same,"viability, T/C",[30],56.5%
same,"viability, T/C",[31],120%
same,"viability, T/C",[32],119%
same,"viability, T/C",[33],118%
same,"viability, T/C",[34],93.7%
same,"viability, T/C",[35],80.3%
same,"viability, T/C",[36],64.4%
CNCc1ccc(-c2[nH]c3cc(F)cc4c3c2CCNC4=O)cc1 + COC1C(OC(N)=O)C(O)C(Oc2ccc3c(O)c(NC(=O)c4ccc(O)c(CC=C(C)C)c4)c(=O)oc3c2C)OC1(C)C,IC50,second compound 0.0316 µM,> 10 µM
same,IC50,second compound 0.1 µM,> 10 µM
same,IC50,second compound 0.316 µM,> 10 µM
same,IC50,second compound 1 µM,> 10 µM
same,IC50,second compound 3.16 µM,> 10 µM
same,IC50,second compound 10 µM,> 10 µM
same,"viability, T/C",[1],99.4%
same,"viability, T/C",[2],115%
same,"viability, T/C",[3],98.6%
same,"viability, T/C",[4],106%
same,"viability, T/C",[5],104%
same,"viability, T/C",[6],92%
same,"viability, T/C",[7],98.2%
same,"viability, T/C",[8],103%
same,"viability, T/C",[9],103%
same,"viability, T/C",[10],104%
same,"viability, T/C",[11],106%
same,"viability, T/C",[12],89.1%
same,"viability, T/C",[13],102%
same,"viability, T/C",[14],113%
same,"viability, T/C",[15],100%
same,"viability, T/C",[16],105%
same,"viability, T/C",[17],95.8%
same,"viability, T/C",[18],87.8%
same,"viability, T/C",[19],106%
same,"viability, T/C",[20],99%
same,"viability, T/C",[21],101%
same,"viability, T/C",[22],98.7%
same,"viability, T/C",[23],97.8%
same,"viability, T/C",[24],88%
same,"viability, T/C",[25],112%
same,"viability, T/C",[26],104%
same,"viability, T/C",[27],101%
same,"viability, T/C",[28],98.8%
same,"viability, T/C",[29],99.3%
same,"viability, T/C",[30],87.5%
same,"viability, T/C",[31],103%
same,"viability, T/C",[32],97.3%
same,"viability, T/C",[33],92.8%
same,"viability, T/C",[34],98.3%
same,"viability, T/C",[35],92%
same,"viability, T/C",[36],85.1%
O=c1[nH]cc(F)c(=O)[nH]1 + Cc1cccc(N(C)C(=O)C2C(O)CCN2c2nc(C)cc(C(F)(F)F)c2C#N)c1,IC50,second compound 0.0316 µM,2.93 µM
same,IC50,second compound 0.1 µM,2.68 µM
same,IC50,second compound 0.316 µM,2.56 µM
same,IC50,second compound 1 µM,2.57 µM
same,IC50,second compound 3.16 µM,2.53 µM
same,IC50,second compound 10 µM,2.54 µM
same,"viability, T/C",[1],99.3%
same,"viability, T/C",[2],104%
same,"viability, T/C",[3],98.1%
same,"viability, T/C",[4],104%
same,"viability, T/C",[5],46.3%
same,"viability, T/C",[6],30.7%
same,"viability, T/C",[7],109%
same,"viability, T/C",[8],108%
same,"viability, T/C",[9],111%
same,"viability, T/C",[10],102%
same,"viability, T/C",[11],41.1%
same,"viability, T/C",[12],33.1%
same,"viability, T/C",[13],107%
same,"viability, T/C",[14],115%
same,"viability, T/C",[15],123%
same,"viability, T/C",[16],96.9%
same,"viability, T/C",[17],40.1%
same,"viability, T/C",[18],37%
same,"viability, T/C",[19],119%
same,"viability, T/C",[20],112%
same,"viability, T/C",[21],112%
same,"viability, T/C",[22],95%
same,"viability, T/C",[23],40%
same,"viability, T/C",[24],31.6%
same,"viability, T/C",[25],116%
same,"viability, T/C",[26],118%
same,"viability, T/C",[27],108%
same,"viability, T/C",[28],93.4%
same,"viability, T/C",[29],38.9%
same,"viability, T/C",[30],32%
same,"viability, T/C",[31],116%
same,"viability, T/C",[32],108%
same,"viability, T/C",[33],104%
same,"viability, T/C",[34],92.2%
same,"viability, T/C",[35],39.6%
same,"viability, T/C",[36],30.9%
